# Reference: patent US20120244567A1, “HUMAN EMBRYONIC STEM CELLS FOR HIGH THROUGHOUT DRUG SCREENING” (BUCK INSTITUTE FOR RESEARCH ON AGING, priority 2009, published 2012)
# Where a name gives a salt, the structure may show the parent alone.
# System: dopaminergic neurons
# Conditions: enriched in treated DA neurons
# Procedure: RNAs isolated from NSCs and neurons with and without drug treatments were hybridized to Illumina HumanRef-8 BeadChip (Illumina, Inc., San Diego, Calif., performed by Microarray core facility at the Burnham Institute for Medical Research). The Illumina array data were normalized by the quantile method, and then transformed log 2 ratio values for a zero mean for expression values of each gene across all samples. The statistical and bioinformatics analyses were conducted by using R and the bioconductor package (www.bioconductor.org). The gene set enrichment analysis was conducted using the GSEA software (www.broad.mit.edu/gsea).
# The comparative results are then measured by a non-parametric, running sum statistic termed the enrichment score. The enrichment score significance is assessed by 1,000 permutation tests to compute the enrichment p-value.
smiles,measurement,setting,value
CCCCc1oc2ccccc2c1C(=O)c1cc(I)c(OCCN(CC)CC)c(I)c1 [Amiodarone Hydrochloride],Nes: Secondary Active Transmembrane Transporter Activity,Nom P-Val 0,1.633
same,Nes: Protein Serine Threonine Kinase Activity,Nom P-Val 0.027778,1.386
same,Nes: Sequence Specific Dna Binding,Nom P-Val 0.056338,1.388
same,Nes: Phosphotransferase Activity Alcohol Group As Acceptor,Nom P-Val 0.059524,1.237
same,Nes: Anion Transmembrane Transporter Activity,Nom P-Val 0.065574,1.432
same,Nes: Lipase Activity,Nom P-Val 0.067797,1.422
same,Nes: Active Transmembrane Transporter Activity,Nom P-Val 0.082192,1.376
same,Nes: Receptor Signaling Protein Serine Threonine Kinase Activity,Nom P-Val 0.157895,1.268
same,Nes: Protein Kinase Activity,Nom P-Val 0.176471,1.196
same,Nes: Structural Constituent Of Muscle,Nom P-Val 0.207547,1.208
same,Nes: Structure Specific Dna Binding,Nom P-Val 0.230769,1.183
same,Nes: Receptor Signaling Protein Activity,Nom P-Val 0.236842,1.149
same,Nes: Ligase Activity Forming Carbon Nitrogen Bonds,Nom P-Val 0.242857,1.127
same,Nes: Small Conjugating Protein Ligase Activity,Nom P-Val 0.243243,1.144
same,Nes: Ligase Activity,Nom P-Val 0.25,1.14
same,Nes: Phosphoric Diester Hydrolase Activity,Nom P-Val 0.25,1.183
same,Nes: Rhodopsin Like Receptor Activity,Nom P-Val 0.25,1.144
same,Nes: Small Protein Conjugating Enzyme Activity,Nom P-Val 0.257576,1.146
same,Nes: Deoxyribonuclease Activity,Nom P-Val 0.258621,1.315
same,Nes: Acid Amino Acid Ligase Activity,Nom P-Val 0.28,1.18
same,Nes: Ubiquitin Protein Ligase Activity,Nom P-Val 0.301587,1.139
same,Nes: Atp Binding,Nom P-Val 0.318841,1.077
same,Nes: Atpase Activity Coupled To Movement Of Substances,Nom P-Val 0.355932,1.065
same,Nes: Dna Binding,Nom P-Val 0.359551,1.034
same,Nes: Nuclease Activity,Nom P-Val 0.360656,1.072
same,Nes: Hydrogen Ion Transmembrane Transporter Activity,Nom P-Val 0.366667,1.078
same,Nes: Udp Glycosyltransferase Activity,Nom P-Val 0.366667,1.093
same,Nes: Kinase Activity,Nom P-Val 0.367816,1.036
same,Nes: Rna Polymerase Ii Transcription Factor Activity,Nom P-Val 0.371429,1.042
same,Nes: Hydrolase Activity Acting On Acid Anhydrides Catalyzing Transmembrane Movement Of Substances,Nom P-Val 0.376812,1.094
same,Nes: Double Stranded Dna Binding,Nom P-Val 0.37931,1.072
same,Nes: Enzyme Activator Activity,Nom P-Val 0.382353,1.049
same,Nes: Transmembrane Receptor Activity,Nom P-Val 0.382716,1.055
same,Nes: Inorganic Cation Transmembrane Transporter Activity,Nom P-Val 0.40625,1.065
same,Nes: Enzyme Inhibitor Activity,Nom P-Val 0.409091,1.052
same,Nes: Transferase Activity Transferring Groups Other Than Amino Acyl Groups,Nom P-Val 0.415385,1.05
same,Nes: Endonuclease Activity,Nom P-Val 0.419355,0.9859
same,Nes: Cytokine Activity,Nom P-Val 0.421875,1.063
same,Nes: Oxidoreductase Activity Acting On Ch Oh Group Of Donors,Nom P-Val 0.424242,1.054
same,Nes: Oxidoreductase Activity Acting On The Ch Ch Group Of Donors,Nom P-Val 0.428571,1.028
same,Nes: Primary Active Transmembrane Transporter Activity,Nom P-Val 0.430556,1.056
same,Nes: Gtpase Activity,Nom P-Val 0.442857,1.015
same,Nes: Transferase Activity Transferring Acyl Groups,Nom P-Val 0.451613,1.003
same,Nes: Damaged Dna Binding,Nom P-Val 0.45283,1.036
same,Nes: Phosphatase Regulator Activity,Nom P-Val 0.467742,1.042
same,Nes: N Acetyltransferase Activity,Nom P-Val 0.473684,1.019
same,Nes: Structural Constituent Of Cytoskeleton,Nom P-Val 0.482759,0.9708
same,Nes: Adenyl Ribonucleotide Binding,Nom P-Val 0.506667,0.9848
same,Nes: G Protein Coupled Receptor Activity,Nom P-Val 0.514706,0.9852
same,Nes: Protease Inhibitor Activity,Nom P-Val 0.516667,0.9864
same,Nes: Transmembrane Receptor Protein Kinase Activity,Nom P-Val 0.516667,0.965
same,Nes: N Acyltransferase Activity,Nom P-Val 0.519231,0.9889
same,Nes: Enzyme Regulator Activity,Nom P-Val 0.520548,0.9793
same,Nes: Hormone Activity,Nom P-Val 0.523077,0.9749
same,Nes: General Rna Polymerase Ii Transcription Factor Activity,Nom P-Val 0.530612,0.9238
same,Nes: Pyrophosphatase Activity,Nom P-Val 0.54321,0.9536
same,Nes: Purine Ribonucleotide Binding,Nom P-Val 0.5625,0.9577
same,Nes: Receptor Activity,Nom P-Val 0.5625,0.9738
same,Nes: Transferase Activity Transferring Sulfur Containing Groups,Nom P-Val 0.566667,0.9403
same,Nes: Magnesium Ion Binding,Nom P-Val 0.567568,0.9401
same,Nes: Integrin Binding,Nom P-Val 0.571429,0.9141
same,Nes: Substrate Specific Transporter Activity,Nom P-Val 0.573171,0.929
same,Nes: Acetyltransferase Activity,Nom P-Val 0.6,0.9474
same,Nes: Single Stranded Dna Binding,Nom P-Val 0.605634,0.9533
same,Nes: Protein Homodimerization Activity,Nom P-Val 0.621212,0.8817
same,Nes: Protein Domain Specific Binding,Nom P-Val 0.628571,0.9357
same,Nes: Lipid Transporter Activity,Nom P-Val 0.62963,0.9194
same,Nes: Protein Dimerization Activity,Nom P-Val 0.636364,0.9248
same,Nes: Ion Transmembrane Transporter Activity,Nom P-Val 0.64,0.9276
same,Nes: Transferase Activity Transferring Hexosyl Groups,Nom P-Val 0.642857,0.9266
same,Nes: Nucleotide Binding,Nom P-Val 0.643836,0.9324
same,Nes: Transferase Activity Transferring Phosphorus Containing Groups,Nom P-Val 0.64557,0.9499
same,Nes: Zinc Ion Binding,Nom P-Val 0.647059,0.896
same,Nes: Translation Regulator Activity,Nom P-Val 0.661017,0.8764
same,Nes: Translation Factor Activity Nucleic Acid Binding,Nom P-Val 0.681159,0.8454
same,Nes: Carbohydrate Binding,Nom P-Val 0.688525,0.8882
same,Nes: Adenyl Nucleotide Binding,Nom P-Val 0.694118,0.8847
same,Nes: Microtubule Binding,Nom P-Val 0.696429,0.8123
same,Nes: Substrate Specific Transmembrane Transporter Activity,Nom P-Val 0.697368,0.9071
same,Nes: Transcription Cofactor Activity,Nom P-Val 0.7,0.8775
same,Nes: Transcription Coactivator Activity,Nom P-Val 0.708333,0.8777
same,Nes: Sulfotransferase Activity,Nom P-Val 0.719298,0.88
same,Nes: Endopeptidase Activity,Nom P-Val 0.720588,0.8136
same,Nes: Metallopeptidase Activity,Nom P-Val 0.733333,0.8731
same,Nes: Neurotransmitter Binding,Nom P-Val 0.754717,0.789
same,Nes: Neurotransmitter Receptor Activity,Nom P-Val 0.757576,0.7972
same,Nes: Lyase Activity,Nom P-Val 0.758065,0.8646
same,Nes: Transmembrane Transporter Activity,Nom P-Val 0.759494,0.8985
same,Nes: Transcription Repressor Activity,Nom P-Val 0.76,0.8555
same,Nes: Nucleoside Triphosphatase Activity,Nom P-Val 0.761905,0.8734
same,Nes: Purine Nucleotide Binding,Nom P-Val 0.763158,0.861
same,Nes: Hydrolase Activity Acting On Acid Anhydrides,Nom P-Val 0.770115,0.8688
same,Nes: Motor Activity,Nom P-Val 0.77193,0.7716
same,Nes: Calcium Channel Activity,Nom P-Val 0.781818,0.7534
same,Nes: Hydro Lyase Activity,Nom P-Val 0.792453,0.773
same,Nes: Calcium Ion Binding,Nom P-Val 0.805556,0.7913
same,Nes: Hydrolase Activity Acting On Carbon Nitrogen But Not Peptide Bonds In Linear Amides,Nom P-Val 0.826923,0.6663
same,Nes: Transmembrane Receptor Protein Tyrosine Kinase Activity,Nom P-Val 0.828947,0.7856
same,Nes: Ion Binding,Nom P-Val 0.833333,0.813
same,Nes: Molecular Adaptor Activity,Nom P-Val 0.84507,0.7682
same,Nes: Gtp Binding,Nom P-Val 0.848485,0.769
same,Nes: Guanyl Nucleotide Exchange Factor Activity,Nom P-Val 0.857143,0.7708
same,Nes: Carbon Oxygen Lyase Activity,Nom P-Val 0.86,0.7402
